What is called melting point is the temperature, or range, at which the solid turns liquid.

Each structure is given as a SMILES string.

In one data set the target is T1, human H4 receptor (Homo sapiens, UniProt Q9H3N8).
T1 construct: expressed in transfected cells
The data set can be described thus: [3H]Histamine binding on membranes of CHO cells stably expressing human H4 receptor. The method, boiled down:
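Membranes from sub-confluent CHO-hH4 cells, 20 μg protein per well, were incubated in 50 mM Tris/HCl, 0.5 mM EDTA, pH 7.4. Nonspecific binding was defined with 10 μM JNJ 7777120. Bound radioactivity was collected on PEI-soaked GF/B filters and counted by liquid scintillation.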

T1 sequence (Q9H3N8 whole entry): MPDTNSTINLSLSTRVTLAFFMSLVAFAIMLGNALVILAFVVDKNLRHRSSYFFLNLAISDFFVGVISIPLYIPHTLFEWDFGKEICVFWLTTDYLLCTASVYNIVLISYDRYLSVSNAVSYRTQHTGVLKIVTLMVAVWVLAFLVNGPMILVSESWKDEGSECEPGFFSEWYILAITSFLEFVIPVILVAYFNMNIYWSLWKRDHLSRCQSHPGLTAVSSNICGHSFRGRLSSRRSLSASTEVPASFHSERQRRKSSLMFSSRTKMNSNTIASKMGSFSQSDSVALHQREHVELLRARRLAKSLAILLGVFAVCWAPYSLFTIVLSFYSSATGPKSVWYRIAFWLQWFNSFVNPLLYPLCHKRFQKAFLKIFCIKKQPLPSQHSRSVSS

In turn, `CN1CCC(OC(c2cccc(SCc3ccccc3)c2)c2nc3ccccc3s2)CC1` (stereo not shown) [Example 148, 2-[(3-benzylsulfanylphenyl)(1-methylpiperidin-4-yloxy)methyl]benzothiazole] returned a melting point of 195 °C. This compound also had a Ki or IC50 activity class at human H4 receptor below 0.3 µM.

Compound `CC(C)CCCOc1cccc(C(NC2CCN(C)CC2)c2nc3ccccc3[nH]2)c1` (stereo not shown) [Example 146, {(1H-benzimidazol-2-yl)[3-(4-methylpentyloxy)phenyl]methyl}(1-methylpiperidin-4-yl)amine] showed a melting point of 73 °C. The Ki or IC50 activity class at human H4 receptor was below 0.3 µM.

`CN1CCC(NC(c2cccc(OC(F)(F)F)c2)c2nc3ccccc3[nH]2)CC1` (stereo not shown) [Example 60, [(1H-benzimidazol-2-yl)(3-trifluoromethoxyphenyl)methyl](1-methylpiperidin-4-yl)amine] registered a melting point of 82 °C. At human H4 receptor, the Ki or IC50 activity class was below 0.03 µM.

In turn, `CN1CCC(OC(c2cccc(F)c2)c2nc3ccccc3[nH]2)CC1` (stereo not shown) [Example 155, 2-[(3-fluorophenyl)(1-methylpiperidin-4-yloxy)methyl]-1H-benzimidazole] came in with a melting point of 93 °C. Also, on human H4 receptor, the Ki or IC50 activity class was below 0.3 µM.

In turn, `Cc1cccc(C(OC2CCN(C)CC2)c2nc3ccccc3[nH]2)c1O` (stereo not shown) [Example 586] came in with a melting point of 111 °C. On human H4 receptor, this compound registered a Ki or IC50 activity class below 0.03 µM.

Take `CN1CCC(NC(c2cccc(OCc3ccccc3)c2)c2nc3ccccc3[nH]2)CC1` (stereo not shown) [Example 65, [(1H-benzimidazol-2-yl)(3-benzyloxyphenyl)methyl](1-methylpiperidin-4-yl)amine]: the melting point came to 78 °C. For the same compound, the Ki or IC50 activity class at human H4 receptor was below 0.03 µM.

On to `CN1CCC(OC(c2nc3ccccc3[nH]2)c2c(O)cccc2Cl)CC1` (stereo not shown) [Example 594], for which the melting point came out at 145 °C. On human H4 receptor, this compound returned a Ki or IC50 activity class below 0.03 µM.

Compound `CN1CCC(OC(c2nc3ccccc3[nH]2)c2ccccc2F)CC1` (stereo not shown) [Example 167, 2-[(2-fluorophenyl)(1-methylpiperidin-4-yloxy)methyl]-1H-benzimidazole] gave a melting point of 181 °C. This compound also gave a Ki or IC50 activity class on human H4 receptor below 0.03 µM.

For `CN1CCC(NC(c2cccc(OCc3cccc(F)c3F)c2)c2nc3ccccc3[nH]2)CC1` (stereo not shown) [Example 162, {(1H-benzimidazol-2-yl)[3-(2,3-difluoro-benzyloxy)phenyl]methyl}(1-methylpiperidin-4-yl)amine], the melting point amounted to 151 °C. The compound further had a Ki or IC50 activity class at human H4 receptor below 0.03 µM.

`CN1CCC(NC(c2cccc(-c3ccccc3)c2)c2nc3ccccc3[nH]2)CC1` (stereo not shown) [Example 94, [(1H-benzimidazol-2-yl)biphenyl-3-ylmethyl](1-methylpiperidin-4-yl)amine] came in with a melting point of 98 °C. On human H4 receptor, the Ki or IC50 activity class is below 0.03 µM.

For the compound `CN1CCC(OC(c2nc3ccccc3[nH]2)c2cc(OC(F)(F)F)ccc2F)CC1` (stereo not shown) [Example 433, 2-[(2-fluoro-5-trifluoromethoxyphenyl)(1-methylpiperidin-4-yloxy)methyl]-1H-benzimidazole], the melting point was 95 °C. In addition, the Ki or IC50 activity class on human H4 receptor was below 0.03 µM.

Regarding `CN1CCC(OC(c2nc3ccccc3[nH]2)c2cc(SCCCF)ccc2O)CC1` (stereo not shown) [Example 612], the melting point was 128 °C. The Ki or IC50 activity class on human H4 receptor is below 0.03 µM.

In turn, `CN1CCC(OC(c2cccc(-c3cnc(O)nc3)c2)c2nc3ccccc3s2)CC1` (stereo not shown) [Example 214, 5-{3-[benzothiazol-2-yl(1-methylpiperidin-4-yloxy)methyl]phenyl}pyrimidin-2-ol] had a melting point of 170 °C. The Ki or IC50 activity class at human H4 receptor is below 0.3 µM.

`CN1CCC(OC(c2nc3ccccc3[nH]2)c2ccc(C(F)(F)F)cc2F)CC1` (stereo not shown) [Example 540] yielded a melting point of 91 °C. This compound registered a Ki or IC50 activity class at human H4 receptor below 0.3 µM.

The values are drawn from patent US8802664B2 (Bioproject, priority 2010, dated 2014).
